Data set [1] can be described thus: Liver metabolic stability assay, hLM. Type of data set: in vitro ADME, human. To be noted: human liver microsomes, 1 mg protein/ml, 5 μM test compound, 15 min, 37 °C.
The test system of data set [2] is Candida parapsilosis B66126. The experiment in a line: Antifungal activity in vitro (resazurin susceptibility screen), Inf. D. The class given is cell-based. The note with it: Lodderomyces parapsilosis; Candida parapsilosis B66126; 37 °C, 24 hours, resa time 4 hours; read-out: Inf. D pIC50 (converted). In short, it runs like this: (§1)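 Each well was inoculated with 10^3 cfu of fungus onto dried, pre-spotted compound serial dilutions in RPMI-MOPS medium, with fungal growth read by resazurin. Growth was referenced to drug-free culture (100%) and medium-only (0%) controls on each plate.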

Data set [3] deals with Trichophyton rubrum B68183. The experiment in a line: Antifungal activity in vitro (resazurin susceptibility screen), Inf. C. The class given is cell-based. The note with it: Trichophyton rubrum B68183; 27 °C, 7 days, resa time 24 hours; read-out: Inf. C pIC50 (converted). Put shortly:
(§2)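 Compound serial dilutions were spotted onto test plates, kept in the dark at 4 °C for at most 2 weeks. Cryopreserved isolates were diluted 1/1000 in medium just before use and added at 10^3 cfu per well. Each plate carried drug-free culture as 100% growth and RPMI-MOPS medium alone as 0% growth.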

For data set [4], the system named is Trichophyton mentagrophytes B70554. As to the kind of experiment: Antifungal activity in vitro (resazurin susceptibility screen), Inf. G. Type of data set: cell-based. The note with it: Trichophyton mentagrophytes, B70554, Trichophyton mentagrophytes B70554; 27 °C, 7 days, resa time 24 hours; read-out: Inf. G pIC50 (converted). In short, it runs like this:
as §1

Data set [5] concerns Rhizomucor miehei IHEM13391. As to the kind of experiment: Antifungal activity in vitro (resazurin susceptibility screen), Inf. K. The class given is cell-based. To be noted: 37 °C, 48 hours, resa time 17 hours, read-out: Inf. K pIC50 (converted). The procedure: (§3) The standard susceptibility screen was performed in 96-well plates (U-bottom, Greiner Bio-One). […] These serial dilutions (10 n1) were then spotted onto test-plates that could be stored in the dark at 4° C. for a maximum period of 2 weeks. […] The different fungal species/isolates (Table 3a) were cryopreserved and 1/1000 diluted in medium just prior to use. A standard inoculum of 200 μl containing 10^3 colony-forming unit (cfu) was then added to each well. A positive control (100% growth=fungal culture without antifungal) and a negative control (0% growth ═RPMI-MOPS medium) were included on each plate. […] [table]

Data set [6] concerns Aspergillus fumigatus B42928. As to the kind of experiment: Antifungal activity in vitro (resazurin susceptibility screen), Inf. E. Type of data set: cell-based. To be noted: Aspergillus fumigatus B42928; 27 °C, 48 hours, resa time 17 hours; read-out: Inf. E pIC50 (converted). Put shortly: as §2
The test system of data set [7] is Mucor circinelloides IHEM21105. The experiment in a line: Antifungal activity in vitro (resazurin susceptibility screen), Inf. L. Type of data set: cell-based. To be noted: 27 °C, 48 hours, resa time 17 hours, read-out: Inf. L pIC50 (converted). The procedure: as §3
In data set [8] the test system is Sporothrix schenkii B62482. As to the kind of experiment: Antifungal activity in vitro (resazurin susceptibility screen), Inf. A. The note with it: Sporothrix, B62482, Sporothrix schenkii B62482; 27 °C, 4 days, resa time 24 hours; highest in-test concentration 64 μM; read-out: Inf. A pIC50 (converted). Type of data set: cell-based. In short, it runs like this:
as §2

In the next data set the target is CYP2C9 (Homo sapiens, UniProt P11712). As to the kind of experiment: Cytochrome P450 inhibition, Protocol A, cDNA expressed proteins, fluorogenic substrate. Type of data set: in vitro ADME. The note with it: % inhibition at 10 μM; substrate MFC; cDNA expressed protein. Put shortly:
(§4)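 cDNA-expressed enzymes with fluorogenic substrates (three separate ones for CYP3A4) in sodium/potassium buffer pH 7.4 plus NADPH-generating system. Compounds at 1 nM to 10 μM final, prewarmed 5 min at 37° C, reaction started with NADP+, stopped, then fluorescence measured.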

Another data set concerns the target T1, CYP1A2 (Homo sapiens, UniProt P05177).
T1 sequence (P05177 1-516): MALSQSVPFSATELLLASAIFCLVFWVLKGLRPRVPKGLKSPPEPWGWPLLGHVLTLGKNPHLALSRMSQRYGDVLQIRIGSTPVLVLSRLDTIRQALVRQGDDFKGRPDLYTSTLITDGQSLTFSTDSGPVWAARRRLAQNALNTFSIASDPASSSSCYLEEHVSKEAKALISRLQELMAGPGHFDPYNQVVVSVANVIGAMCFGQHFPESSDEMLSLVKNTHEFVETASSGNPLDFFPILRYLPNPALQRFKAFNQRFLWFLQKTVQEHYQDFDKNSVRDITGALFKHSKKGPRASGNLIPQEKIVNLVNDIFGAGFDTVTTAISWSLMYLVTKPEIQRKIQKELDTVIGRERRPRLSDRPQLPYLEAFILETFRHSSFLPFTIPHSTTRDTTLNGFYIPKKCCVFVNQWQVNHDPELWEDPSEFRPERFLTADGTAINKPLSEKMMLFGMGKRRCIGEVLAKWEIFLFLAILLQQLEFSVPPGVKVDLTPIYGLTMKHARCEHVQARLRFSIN
Described as above. Type of data set: in vitro ADME. To be noted: % inhibition at 10 μM; substrate CEC; cDNA expressed protein. In short, it runs like this:
as §4

The next data set deals with CYP2D6 (Homo sapiens, UniProt P10635). The data set is described as above. To be noted: % inhibition at 10 μM; substrate AMMC; cDNA expressed protein. Type of data set: in vitro ADME. Put shortly:
as §4

Chain of CYP2D6 (P10635 whole entry): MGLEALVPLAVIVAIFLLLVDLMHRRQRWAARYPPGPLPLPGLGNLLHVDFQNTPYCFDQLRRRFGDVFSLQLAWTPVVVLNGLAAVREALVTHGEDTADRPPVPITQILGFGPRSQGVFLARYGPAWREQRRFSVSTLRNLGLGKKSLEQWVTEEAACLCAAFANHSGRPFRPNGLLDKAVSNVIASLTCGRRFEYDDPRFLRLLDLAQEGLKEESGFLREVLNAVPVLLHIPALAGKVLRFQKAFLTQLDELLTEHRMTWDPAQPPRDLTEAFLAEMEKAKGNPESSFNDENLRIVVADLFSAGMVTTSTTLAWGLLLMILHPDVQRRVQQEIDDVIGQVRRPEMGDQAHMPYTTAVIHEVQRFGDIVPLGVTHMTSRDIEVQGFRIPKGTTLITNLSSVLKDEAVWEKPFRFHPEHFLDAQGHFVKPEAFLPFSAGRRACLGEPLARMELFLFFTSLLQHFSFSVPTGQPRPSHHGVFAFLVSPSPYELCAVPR
Chain of CYP2C9 (P11712 whole entry): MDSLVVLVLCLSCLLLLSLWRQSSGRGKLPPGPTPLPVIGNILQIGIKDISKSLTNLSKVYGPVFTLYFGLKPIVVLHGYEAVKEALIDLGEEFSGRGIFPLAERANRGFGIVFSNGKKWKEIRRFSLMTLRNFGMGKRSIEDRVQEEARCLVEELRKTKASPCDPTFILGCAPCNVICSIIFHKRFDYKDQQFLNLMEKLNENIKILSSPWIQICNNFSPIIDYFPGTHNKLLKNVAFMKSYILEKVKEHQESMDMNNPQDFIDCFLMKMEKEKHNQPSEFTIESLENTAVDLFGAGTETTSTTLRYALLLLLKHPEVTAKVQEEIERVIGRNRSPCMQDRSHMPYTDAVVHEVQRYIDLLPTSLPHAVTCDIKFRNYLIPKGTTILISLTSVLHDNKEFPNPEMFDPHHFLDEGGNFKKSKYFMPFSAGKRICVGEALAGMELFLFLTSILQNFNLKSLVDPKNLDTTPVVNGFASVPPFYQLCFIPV

For `CC(=O)c1ccc(C2=NCc3cccc(Cl)c3-n3cccc32)cc1` [Compound 15, 1-[4-(10-chloro-6H-pyrrolo[1,2-a][1,4]benzodiazepin-4-yl)phenyl]-ethanone], the “%-compound metabolised_Met_hLM” value in [1] was 17%. Moreover, the IC50 in data set [2] was more than 63100 nM; in data set [3], 126 nM; in data set [4], 398 nM; in data set [5], 7940 nM; in data set [6], 501 nM; in data set [7], more than 63100 nM. Further, the IC50 in data set [8] was 1580 nM. At CYP2C9, this molecule came in with a hCYP2C9_MFC_Pct_Inh of 60%. The hCYP1A2_CEC_Pct_Inh on CYP1A2 was 38%. This molecule showed a hCYP2D6_AMMC_Pct_Inh at CYP2D6 of 63%.
For `CC(=O)c1cccc(C2=NCc3c(Cl)cccc3-n3cccc32)c1` [Compound 16, 1-[3-(7-chloro-6H-pyrrolo[1,2-a][1,4]benzodiazepin-4-yl)phenyl]-ethanone], the “%-compound metabolised_Met_hLM” value in [1] is given as 87%. The IC50 in data set [2] is more than 63100 nM; in [3], 50.1 nM; in data set [4], 398 nM; in [5] it was more than 63100 nM; in data set [6], 631 nM; in data set [7], more than 63100 nM. For the same molecule, the IC50 in data set [8] is 25100 nM. The hCYP2C9_MFC_Pct_Inh at CYP2C9 turned out to be 84%. Further, the hCYP1A2_CEC_Pct_Inh on CYP1A2 is reported as 55%. Also, the hCYP2D6_AMMC_Pct_Inh at CYP2D6 is recorded as 55%.
As to `CC(=O)c1cc(C2=NCc3c(Cl)cccc3-n3cccc32)ccc1F` [Compound 19, 1-[5-(7-chloro-6H-pyrrolo[1,2-a][1,4]benzodiazepin-4-yl)-2-fluorophenyl]-ethanone], the “%-compound metabolised_Met_hLM” value in data set [1] was determined as 36%. For the same molecule, the IC50 is more than 63100 nM in [2]; 200 nM in [3]; 794 nM in data set [4]; more than 63100 nM in data set [5]; 2000 nM in data set [6]; more than 63100 nM in data set [7]. In [8], the IC50 was more than 63100 nM. Moreover, the hCYP2C9_MFC_Pct_Inh on CYP2C9 came out at 60%. The molecule further returned a hCYP1A2_CEC_Pct_Inh at CYP1A2 of 44%. On CYP2D6, this molecule registered a hCYP2D6_AMMC_Pct_Inh of 33%.
For the molecule `CC(=O)c1ccc(C2=NCc3c(F)cccc3-n3cccc32)cc1` [Compound 20, 1-[4-(7-fluoro-6H-pyrrolo[1,2-a][1,4]benzodiazepin-4-yl)phenyl]-ethanone], the “%-compound metabolised_Met_hLM” value in [1] is listed as 26%. Moreover, the IC50 in data set [2] was more than 63100 nM; in [3], 100 nM; in data set [4], 398 nM; in [5], more than 63100 nM; in data set [6], 501 nM; in [7], more than 63100 nM. Moreover, the IC50 in data set [8] was more than 63100 nM. The molecule also returned a hCYP2C9_MFC_Pct_Inh at CYP2C9 of 43%. Also, the hCYP1A2_CEC_Pct_Inh on CYP1A2 is given as 18%. On CYP2D6, this molecule displayed a hCYP2D6_AMMC_Pct_Inh of 20%.
For `CC(=O)c1ccc(C2=NCc3c(Cl)cc(Cl)cc3-n3cccc32)cc1` [Compound 22, 1-[4-(7,9-dichloro-6H-pyrrolo[1,2-a][1,4]benzodiazepin-4-yl)phenyl]-ethanone], in [1], the “%-compound metabolised_Met_hLM” value was found to be 27%. Also, the IC50 in [2] is 25100 nM; in [3], 50.1 nM; in data set [4], 316 nM; in data set [5] it was more than 63100 nM; in [6], 251 nM; in data set [7] it was more than 63100 nM. In addition, the IC50 in [8] is 3980 nM. This molecule also displayed a hCYP2C9_MFC_Pct_Inh at CYP2C9 of 85%. The hCYP1A2_CEC_Pct_Inh at CYP1A2 was found to be 20%. The molecule further registered a hCYP2D6_AMMC_Pct_Inh on CYP2D6 of 53%.
`CC(=O)c1ccc(C2=NCc3c(F)cc(F)cc3-n3cccc32)cc1` [Compound 24, 1-[4-(7,9-difluoro-6H-pyrrolo[1,2-a][1,4]benzodiazepin-4-yl)phenyl]-ethanone]: the “%-compound metabolised_Met_hLM” value in data set [1] is recorded as 20%. For the same molecule, the IC50 was 3980 nM in data set [2]; 126 nM in [3]; 631 nM in data set [4]; more than 63100 nM in data set [5]; 794 nM in data set [6]; more than 63100 nM in [7]. Besides, in data set [8], the IC50 was 20000 nM. For the same molecule, the hCYP2C9_MFC_Pct_Inh at CYP2C9 worked out at 54%. Moreover, the hCYP1A2_CEC_Pct_Inh on CYP1A2 is 18%. This molecule came in with a hCYP2D6_AMMC_Pct_Inh on CYP2D6 of 3%.
